According to publication PMC4503439, “Dose-Independent ADME Properties and Tentative Identification of Metabolites of α-Mangostin from Garcinia mangostana in Mice by Automated Microsampling and UPLC-MS/MS Methods” (PLoS ONE, 2015):
Like-named read-outs stand apart in the source and are kept apart here.

Key:
[1] = Metabolism of α-MG in in vitro S9 fraction of small intestine; assay type: in vitro ADME, mice; settings: 30 min incubation, NADPH and UDPGA
Excerpt: (§1) The procedures for using S9 fractions from various tissues were similar those already reported. Each liver, stomach, small intestine, large intestine, lung, heart, kidney, fat, mesentery, muscle, and brain was excised after cervical dislocation (n = 6). Each tissue sample was rinsed with cold 0.9% NaCl-injectable solution, blotted dry with tissue paper and weighed. Then each tissue was homogenized with a volume of 0.25 M sucrose at 4 times of each tissue. Metabolic activity was initiated by adding a 100 μL aliquot of the 9000 × g supernatant fraction (S9) of each tissue to a 135 μL of Tris-buffer (pH 7.4), 5 μL of 0.9% NaCl-injectable solution with 1 or 20 μg/mL α-MG as a final concentration, 5 μL (1 mM) of NADPH and 5 μL (3.3 mM) of UDPGA. A 250 μL aliquot of acetonitrile (containing 1 μg/mL of the IS) was added after a 30 min incubation in a thermomixer (37°C and 500 opm) to terminate the enzyme activity. The amount of remaining α-MG in the S9 fraction of each tissue was determined using the HPLC-MS/MS analytical method.

[2] = Pharmacokinetics of α-MG after intravenous administration to mice (automated microsampling); assay type: in vivo; settings: for CL renal / MRT / clearance / AUC / half-life / Vd: mouse, plasma; for half-life: read-out: Terminal half-life; for Vd: read-out: V ss
Experimental: The surgical procedures were conducted under intramuscular injection anesthesia with 125 mg (1.5 mL)/kg of tiletamine HCl and zolazepam HCl mixture. The carotid artery (for intravenous and oral studies) and the jugular vein (for intravenous study) were cannulated using CX-2052S and CX-2022S catheters (BASi, West Lafayette, IN), respectively. After the mice awoke from anesthesia, the administration of α-MG and blood sampling were performed, [12], [31].
In intravenous study, α-MG (dissolved in PEG 400: distilled water = 6:4, v/v) at doses of 5, 10 and 20 mg (5 mL)/kg was administered through the jugular vein. The micro-sampling system (Culex BASi, West Lafayette, IN) was programmed to collect a 10 μL sample of blood into a micro-vial containing 50 μL of 12.5 units/mL heparinized saline. Blood loss due to blood sampling was replaced with equal volumes of heparinized saline. Blood samples were collected at 0, 1, 5, 15, 30, 60, 90, 120, 180, 240, 300 and 360 min after intravenous administration of the α-MG with virtually no blood loss. After centrifugation of each micro-vial, 50 μL of supernatant was collected. At the end of 24 h, each metabolic cage was rinsed with 5 mL of distilled water and the resulting fluid combined with the urine collected over the previous 24 h. At this time, each mouse was sacrificed by cervical dislocation, and then the entire gastrointestinal tract (including its contents and feces) was removed, transferred into a beaker that contained 10 mL of methanol (to facilitate the extraction of α-MG) and the gastrointestinal tract was cut into small pieces. After manual shaking and stirring, a 50 μL aliquot of the supernatant was collected from each beaker and stored.
The analytical method for measuring α-MG was modified from a previous report. In sample preparation, 100 μL of acetonitrile containing 1 μg/mL IS was added to 50 μL of aliquot of the sample. After vortex-mixing and centrifugation (15000 × g for 10 min), 10 μL of the supernatant was directly injected into a reversed-phase C18 column (Cadenza CD-C18, 2 mm × 75 mm i.d., 3-μm particle size; Imtakt, USA) kept at 4°C until injection. The analytes were monitored using a API4000 triple quadrupole mass spectrometer (AB Sciex, Foster City, CA) equipped with a turbo ion-spray interface for electrospray ionization and operated in positive ion mode at 5500 V and 500°C at 50 L/min of nebulizing gas flow, 50 L/min of turbo ion-spray gas flow, 20 L/min of curtain gas flow, 5500 V of ring voltage and 5 Torr of collision gas (nitrogen) pressure.
Standard methods were used to calculate the following pharmacokinetic parameters using a non-compartmental analysis (WinNonlin 2.1; Pharmasight Corp., Mountain View, CA). The extent of absolute oral bioavailability (F) was calculated by dividing the AUCoral/AUCiv at the same dose. The peak plasma concentration (C max) and time to reach C max (T max) were read directly from the […] data.

[3] = Mouse plasma protein binding using an equilibrium dialysis technique; assay type: in vitro ADME; settings: pH 7.4, fresh mouse plasma
Experimental: A 250 μL of mouse plasma was dialyzed against 250 μL of isotonic Sørensen phosphate buffer with pH 7.4 containing 3% (w/v) dextran (‘the buffer’) in a dialysis cell using a Spectra/Por 4 membrane (molecular weight cutoff of 12000–14000; Spectrum Medical Industries). α-MG was spiked into the plasma compartment to produce an initial concentration of 1 or 20 μg/mL and all other procedures followed the reported method.

[4] = Stability of α-MG in various buffer solutions; assay type: physicochemical; settings: pHs ranging from 2 to 13; unpublished data
[5] = Metabolism of α-MG in in vitro S9 fractions of other tissues; assay type: in vitro ADME, mice; settings: other tissues studied, spiked 1 and 20 μg/mL
Excerpt: as §1

[6] = intravenous, doses of 5, 10 and 20 mg/kg

Which “disappearance of spiked α-MG” value ([1]; small intestine S9, 1 μg/mL) does the source give for `COc1c(O)cc2oc3cc(O)c(CC=C(C)C)c(O)c3c(=O)c2c1CC=C(C)C` [α-MG, α-Mangostin] here?
Its value is 34.8%.

What about the “disappearance of spiked α-MG” value ([1]; small intestine S9, 20 μg/mL) of the same compound?
Its value is 36.2%.

What about the “CLR, fu (CLR based on free fraction in plasma)” value ([2]; estimated from CLR and unbound fraction) of the same compound?
The value was 1.72 to 3.44 mL/min/kg.

And the “Ae 0–24 h (excreted in the urine as unchanged α-MG)” value ([2]; intravenous, 5 mg/kg)?
Its value is 0.839 ± 0.525 % of dose.

And the CLNR ([2]; intravenous, 5 mg/kg)?
The CLNR was 31.1 ± 7.14 mL/min/kg.

And the “GI 24 h (remaining in the gastrointestinal tract at 24 h as unchanged α-MG)” value ([2]; intravenous, 5 mg/kg)?
The value was 3.44 ± 1.16 % of dose.

What about the “Ae 0–24 h (excreted in the urine as unchanged α-MG)” value ([2]; intravenous, 10 mg/kg) of the same compound?
The value was 0.592 ± 0.394 % of dose.

What about the CLNR ([2]; intravenous, 10 mg/kg) of the same compound?
The CLNR was 31.1 ± 7.83 mL/min/kg.

And the “GI 24 h (remaining in the gastrointestinal tract at 24 h as unchanged α-MG)” value ([2]; intravenous, 10 mg/kg)?
The value was 2.28 ± 1.96 % of dose.

What about the “Ae 0–24 h (excreted in the urine as unchanged α-MG)” value ([2]; intravenous, 20 mg/kg) of the same compound?
Its value is 0.403 ± 0.163 % of dose.

And the CLNR ([2]; intravenous, 20 mg/kg)?
Its CLNR is 34.6 ± 12.3 mL/min/kg.

And the “GI 24 h (remaining in the gastrointestinal tract at 24 h as unchanged α-MG)” value ([2]; intravenous, 20 mg/kg)?
Its value is 3.42 ± 1.73 % of dose.

What about the “Ae 0–24 h” value [2, 6] of the same compound?
The value was “less than 0.839 % of the intravenous dose”.

What about the “GI 24 h” value [2, 6] of the same compound?
Its value is “less than 3.44 % of the doses”.

What about the CL renal ([2]; intravenous, 5 mg/kg) of the same compound?
Its CL renal is 0.283 ± 0.194 mL/min/kg.

What about the MRT ([2]; intravenous, 5 mg/kg) of the same compound?
The MRT was 2.42 h.

And the clearance ([2]; intravenous, 5 mg/kg)?
Its clearance is 31.4 ± 7.28 mL/min/kg.

What about the AUC ([2]; intravenous, 5 mg/kg (n = 9)) of the same compound?
The AUC was 2820 ng·h/mL.

What about the half-life ([2]; intravenous, 5 mg/kg) of the same compound?
Its half-life is 3.77 ± 0.572 h.

What about the Vd ([2]; intravenous, 5 mg/kg) of the same compound?
Its Vd is 4.3 ± 1.01 L/kg.

And the CL renal ([2]; intravenous, 10 mg/kg)?
The CL renal was 0.205 ± 0.15 mL/min/kg.

And the MRT ([2]; intravenous, 10 mg/kg)?
Its MRT is 2.67 h.

What about the clearance ([2]; intravenous, 10 mg/kg) of the same compound?
The clearance was 31.3 ± 7.95 mL/min/kg.

And the AUC ([2]; intravenous, 10 mg/kg (n = 8))?
The AUC was 5670 ng·h/mL.

What about the half-life ([2]; intravenous, 10 mg/kg) of the same compound?
The half-life was 3.65 ± 1.23 h.

And the Vd ([2]; intravenous, 10 mg/kg)?
The Vd was 4.27 ± 1.97 L/kg.

What about the CL renal ([2]; intravenous, 20 mg/kg) of the same compound?
The CL renal was 0.141 ± 0.0801 mL/min/kg.

And the MRT ([2]; intravenous, 20 mg/kg)?
Its MRT is 2.4 h.

And the clearance ([2]; intravenous, 20 mg/kg)?
The clearance was 34.7 ± 12.4 mL/min/kg.

And the AUC ([2]; intravenous, 20 mg/kg (n = 8))?
The AUC was 10600 ng·h/mL.

What about the half-life ([2]; intravenous, 20 mg/kg) of the same compound?
Its half-life is 2.88 ± 1.2 h.

And the Vd ([2]; intravenous, 20 mg/kg)?
The Vd was 4.5 ± 1.38 L/kg.

What about the clearance ([2]; intravenous, range over doses (Table 1)) of the same compound?
The clearance was 31.3 to 34.7 mL/min/kg.

And the fraction unbound at 1 μg/mL ([3]; 1 μg/mL)?
Its fraction unbound at 1 μg/mL is 0.082.

What about the fraction unbound at 20 μg/mL ([3]; 20 μg/mL) of the same compound?
The fraction unbound at 20 μg/mL was 0.107.

And the “stability in various buffer solutions” value [4]?
Its value is “stable”.

What about the “metabolic activity in S9 fractions” value [5] of the same compound?
Its value is “almost negligible metabolic activities”.
